Reference: patent US20090156399A1, “Synergistic Insecticide Mixtures” (Bayer CropScience AG, priority 2005, published 2009)

System: Myzus persicae
Experiment: Myzus persicae test (cabbage leaf dip)
Format: in vivo
From the text: The expected activity for a given combination of two active compounds can be calculated (cf. COLBY, S. R.; “Calculating Synergistic and Antagonistic Responses of Herbicide Combinations”, Weeds 15, pages 20-22, 1967):
if • X=the kill rate, expressed in % of the untreated control, when employing active compound A at an application rate of m ppm, • Y=the kill rate, expressed in % of the untreated control, when employing active compound B at an application rate of n ppm, • E=the kill rate, expressed in % of the untreated control, when employing active compounds A and B at application rates of m and n ppm, then
If the actual insecticidal kill rate is higher than the calculated one, the kill rates of the combination are superadditive, i.e. a synergistic effect is present. In this case, the kill rate that is actually observed has to be higher than the value, calculated using the formula above, for the expected kill rate (E).
To produce a suitable preparation of active compound, 1 part by weight of active compound is mixed with the stated amounts of solvent and emulsifier, and the concentrate is diluted with emulsifier-containing water to the desired concentration. […]
After the desired period of time, the kill in % is determined. […] The determined kill rates are entered into Colby's formula (see page 27).

## CN/C(=N\[N+](=O)[O-])NCc1cnc(Cl)s1 [Clothianidin]
0.16 ppm, cabbage leaves dipped, after 6 d
  Kill in % after 6d: 0%

## N#C/N=C1\SCCN1Cc1ccc(Cl)nc1 [Thiacloprid]
0.8 ppm, cabbage leaves (Brassica oleracea) dipped, after 1 d
  Kill in % after 1d: 30%
